Here are results for one compound from US8778961B2, “O-methylated rapamycin derivatives for alleviation and inhibition of lymphoproliferative disorders” (The Trustees of the University of Pennsylvania, priority 2000, dated 2014).

The subject of assay [1] is PTLD-like B cell lines 20A, A1, A2D6, and LCL. Description: cell cycle progression by propidium iodide flow cytometry. It is filed as cell-based, human. To be noted: 48 hours. The method, then:
(§1) The cell lines to be examined were cultured with several concentrations of SDZ RAD (0 to 10 nanomolar) for 24-48 hours. The cells were washed with DPBS and stain solution (pH 7.2) containing 3% PEG 6000, 50 micrograms per milliliter DNA fluorochrome propidium iodide (PI; Calbiochem, San Diego, Calif.), annexin V-FITC as described (Douglas et al., 1998, Cytometry 32:57-65) 0.1% (v/v) TRITON™ X (Sigma, St. Louis, Mo.), 4 millimolar citrate buffer pH 7.8, and 360 units per milliliter RNase A (Worthington Biochemicals, Freehold, N.J.) for 30 minutes at 37 C. Next, salt solution pH 7.2 (3% w/v PEG 6000, PI 50 micrograms per milliliter, 0.1% v/v TRITON™ X, and 0.4 molar NaCl) was added, and the cells were incubated at 4° C. in the dark for 1 hour before flow cytometry analysis was performed, as described (Douglas et al., 1998, Cytometry 32:57-65; Kawamata et al., 1998, Blood 91:561-569; Pepper et al., 1998, Leuk. Res. 22:439-444).
Rapamycin and, presumably, O-alkylated rapamycin derivatives such as SDZ RAD, block cell cycle progression at the early stage in normal T cells (Terada et al., 1993, J. Cell Physiol. 154:7-15; Flanagan et al., 1993, Ann. N.Y. Acad. Sci. 696:31-37). […] The effect was drug dose and cell-line type dependent. […] Percentages of cells in the later phases of the cell cycle (G2-M and S) were diminished proportionally. A1 and, to a lesser degree, A2D6 cell line were particularly sensitive to SDZ RAD. Four EBV^+ B-cell lines were cultured for 48 hours with 0-10 nanomolar SDZ RAD, labeled with propidium iodine, and analyzed by flow cytometry.

The test system of a further assay is A1 line. Description: apoptosis (Annexin V flow cytometry). It is filed as cell-based, human. To be noted: 24 hours. The method, then: as §1
(§2) Previous studies have shown that immunosuppressive macrolides as represented by rapamycin can induce or enhance apoptosis stimulated by other agents (Gottschalk et al., 1994, Proc. Natl. Acad. Sci. USA 91:7350-7354; Muthukkumar et al., 1995, Transplantation 60:264-270; Shi et al., 1995, Cancer Res. 55:1982-1988; Hosoi et al., 1999, Cancer Res. 59:886-894). In order to determine if SDZ RAD affects the apoptotic rate in PTLD-like cells, we tested apoptosis-induced surface expression of Annexin V by flow cytometry in the 20A, A1, A2D6 cell lines (FIG. 3). […] In A2D6 line, it led to 11% increase, and in the 20A line to 12% increase. At the highest dose (10 nanomolar), SDZ RAD led to approximately 240% increase in A1 line and 45% increase in both A2D6 and 20A lines.
On the technique in general: A flow cytometer gives signals particle by particle.

The subject of another assay is 20A line. Description: apoptosis (Annexin V flow cytometry). It is filed as cell-based, human. To be noted: 24 hours. Here is the method: as §1, §2
The next assay relates to A2D6 line. Description: apoptosis (Annexin V flow cytometry). It is filed as cell-based, human. The settings on record: 24 hours. The method, then:
as §1, §2

Assay [2] has as its system HTLV-I (+) T-cell lines ATL-2, C10MJ2, HUT102B. To be noted: Zhang et al., 1999, Leukemia Res. 23:373-384; cited from earlier work.

As for `CO[C@H]1C[C@@H]2CC[C@@H](C)[C@@](O)(O2)C(=O)C(=O)N2CCCC[C@H]2C(=O)O[C@H]([C@H](C)C[C@@H]2CC[C@@H](OCCO)[C@H](OC)C2)CC(=O)[C@H](C)/C=C(\C)[C@@H](O)[C@@H](OC)C(=O)[C@H](C)C[C@H](C)/C=C/C=C/C=C/1C` [SDZ RAD, 40-O-(2-hydroxy)ethyl-rapamycin], the “cell cycle progression at the early, G0/G1 phase” value in assay [1] (all 4 cell lines, 0-10 nanomolar) is reported as “markedly inhibited”. In addition, the “increase in the percentage of cells in G0/G1” value in assay [1] (highest dose 10 nanomolar) is recorded as 10-70%; in assay [1] (low doses 1-2 nanomolar), 5-25. The “increase in the number of apoptotic cells” value with A1 line (1 nanomolar) was “approximately 60%”; in the assay on A1 line (10 nanomolar) it was “approximately 240%”; with 20A line (1 nanomolar) it was 12%; in the assay with 20A line (10 nanomolar), 45%; in the assay with A2D6 line (1 nanomolar) it was 11%; in the assay with A2D6 line (10 nanomolar), 45%. Further, the “percentage of apoptotic cells” value in the assay with A1 line (1 nanomolar, from 10% without drug) was found to be 16%. The “response of cell lines to the drug” value in assay [2] was “non-responsive”.
